Source: paper PMC6329626 (British Journal of Pharmacology, 2018)
Like-named read-outs stand apart in the source and are kept apart here.

Legend:
recombinant human CYP3A4 = recombinant human CYP3A4 (Homo sapiens, UniProt P08684); experiment: Enzyme kinetics of flucloxacillin hydroxylation by CYP3A4 Supersomes; conditions: 100 nM CYP3A4 Supersomes, 10 min
[1] = read-out: Average Cmax in patients; patients taking 1000 mg orally; cited from earlier work
biliary epithelial cells = conditions: ref Lakehal et al., 2001; cited from earlier work
HLM from 16 donors = format: in vitro ADME, human; conditions: for Pearson's r, FLX hydroxylation vs phenacetin O-deethylation: CYP1A2; for Pearson's r, FLX hydroxylation vs coumarin 7-hydroxylation: CYP2A6; for Pearson's r, FLX hydroxylation vs diclofenac 4′-hydroxylation: CYP2C9
pooled HLM [2] = experiment: Enzyme kinetics of 5′-HM-FLX formation from flucloxacillin by pooled HLM; format: in vitro ADME, human; conditions: 0.5 mg·mL^−1 pooled HLM, 10 min, Michaelis–Menten fit
pooled HLM [3] = experiment: Inhibition of 5′-HM-FLX formation by pooled HLM by CYP-specific inhibitors; format: biochemical, human; conditions: 10 μM inhibitor; pooled HLM
[4] = system: CYP3A (flucloxacillin 5′-hydroxylation); experiment: as above; format: biochemical, human; conditions: human, pooled human liver microsomes, probe flucloxacillin (formation of 5′-HM-FLX), 10 and 100 μM
HLM [5] = conditions: 25 μM sulfaphenazole; ref Lakehal et al., 2001; cited from earlier work
HLM [6] = conditions: ref Towles et al., 2016; cited from earlier work
[7] = molecular target: CYP3A4 (testosterone 6β-hydroxylation) in HLM (Homo sapiens, UniProt P08684); experiment: Inhibition by sulfaphenazole of testosterone hydroxylation in HLM; format: biochemical
recombinant CYP3A7 = recombinant CYP3A7 (Homo sapiens, UniProt P24462); experiment: Inhibition by sulfaphenazole of CYP3A7 Supersomes; format: biochemical; conditions: testosterone 50 μM
[8] = substrate: Cc1onc(-c2c(F)cccc2Cl)c1C(=O)N[C@@H]1C(=O)N2[C@@H]1SC(C)(C)[C@@H]2C(=O)O; experiment: cells, lysate or membranes named; format: in vitro ADME, human; conditions: other: 100 nM CYP3A7 Supersomes, 10 min; pH 7.4; 37.0 °C

Sequence of CYP3A4 (testosterone 6β-hydroxylation) in HLM (P08684 whole entry): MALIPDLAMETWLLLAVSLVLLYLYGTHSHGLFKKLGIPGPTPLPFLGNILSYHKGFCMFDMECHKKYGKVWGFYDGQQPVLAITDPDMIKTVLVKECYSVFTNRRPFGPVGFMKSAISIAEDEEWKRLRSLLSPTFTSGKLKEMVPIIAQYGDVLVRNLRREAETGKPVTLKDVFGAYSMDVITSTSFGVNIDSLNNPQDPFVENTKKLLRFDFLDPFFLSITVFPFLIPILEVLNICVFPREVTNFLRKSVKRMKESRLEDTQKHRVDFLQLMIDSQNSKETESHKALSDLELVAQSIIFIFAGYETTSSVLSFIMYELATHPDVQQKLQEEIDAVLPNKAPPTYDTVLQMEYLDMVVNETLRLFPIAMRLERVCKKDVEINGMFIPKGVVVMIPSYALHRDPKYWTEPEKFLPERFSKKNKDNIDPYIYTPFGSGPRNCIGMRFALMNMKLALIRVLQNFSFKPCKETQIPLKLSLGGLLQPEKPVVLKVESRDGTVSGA
Sequence of recombinant human CYP3A4 (P08684 whole entry): as above

Cc1onc(-c2c(F)cccc2Cl)c1C(=O)N[C@@H]1C(=O)N2[C@@H]1SC(C)(C)[C@@H]2C(=O)O [flucloxacillin]
K M of 5′-HM-FLX formation (recombinant human CYP3A4): 124 ± 15 µM
Cmax [1]: 100 µM
Cytotoxicity to isolated biliary epithelial cells (biliary epithelial cells): without effect
Pearson's r, FLX hydroxylation vs phenacetin O-deethylation (HLM from 16 donors; 10 μM FLX): 0.04
Pearson's r, FLX hydroxylation vs phenacetin O-deethylation (HLM from 16 donors; 100 μM FLX): 0.10
Pearson's r, FLX hydroxylation vs coumarin 7-hydroxylation (HLM from 16 donors; 10 μM FLX): 0.45
Pearson's r, FLX hydroxylation vs coumarin 7-hydroxylation (HLM from 16 donors; 100 μM FLX): 0.45
Pearson's r, FLX hydroxylation vs amodiaquine N-deethylation (HLM from 16 donors; CYP2C8, 10 μM FLX): 0.50
Pearson's r, FLX hydroxylation vs diclofenac 4′-hydroxylation (HLM from 16 donors; 10 μM FLX): 0.78
Pearson's r, FLX hydroxylation vs diclofenac 4′-hydroxylation (HLM from 16 donors; 100 μM FLX): 0.58
Pearson's r, FLX hydroxylation vs mephenytoin 4′-hydroxylation (HLM from 16 donors; CYP2C19, 10 μM FLX): 0.45
Pearson's r, FLX hydroxylation vs midazolam 1′-hydroxylation (HLM from 16 donors; CYP3A4, 10 μM FLX): 0.58
Pearson's r, FLX hydroxylation vs testosterone 6β-hydroxylation (HLM from 16 donors; CYP3A4, 10 μM FLX): 0.69
K M of 5′-HM-FLX formation (pooled HLM [2]): 284 ± 38 µM
Vmax of 5′-HM-FLX formation (pooled HLM [2]): 30 ± 2 pmol·min^−1·mg^−1 protein

COCCCC/C(=N\OCCN)c1ccc(C(F)(F)F)cc1 [fluvoxamine]
Inhibition of 5′-HM-FLX formation (pooled HLM [3]): did not show significant inhibition

CC(=O)N1CCN(c2ccc(OCC3COC(Cn4ccnc4)(c4ccc(Cl)cc4Cl)O3)cc2)CC1 (stereo not shown) [ketoconazole]
inhibition at 1 μM [4]: 50%

Nc1ccc(S(=O)(=O)Nc2ccnn2-c2ccccc2)cc1 [sulfaphenazole]
Inhibition of HLM-catalysed hydroxylation of flucloxacillin (HLM [5]): no inhibition
Inhibition of bioactivation of hydroxylapatinib by HLM (HLM [6]): significantly inhibited
Inhibition of testosterone hydroxylation [7]: but not testosterone hydroxylation
Inhibition of 6β-hydroxylation of testosterone (recombinant CYP3A7): not affected

B1: recombinant human CYP3A7 (Homo sapiens) (protein)
chain: MDLIPNLAVETWLLLAVSLILLYLYGTRTHGLFKKLGIPGPTPLPFLGNALSFRKGYWTFDMECYKKYRKVWGIYDCQQPMLAITDPDMIKTVLVKECYSVFTNRRPFGPVGFMKNAISIAEDEEWKRIRSLLSPTFTSGKLKEMVPIIAQYGDVLVRNLRREAETGKPVTLKHVFGAYSMDVITSTSFGVSIDSLNNPQDPFVENTKKLLRFNPLDPFVLSIKVFPFLTPILEALNITVFPRKVISFLTKSVKQIKEGRLKETQKHRVDFLQLMIDSQNSKDSETHKALSDLELMAQSIIFIFAGYETTSSVLSFIIYELATHPDVQQKVQKEIDTVLPNKAPPTYDTVLQLEYLDMVVNETLRLFPVAMRLERVCKKDVEINGMFIPKGVVVMIPSYVLHHDPKYWTEPEKFLPERFSKKNKDNIDPYIYTPFGSGPRNCIGMRFALVNMKLALVRVLQNFSFKPCKETQIPLKLRFGGLLLTEKPIVLKAESRDETVSGA
kcat [8]: 193 ± 7 pmol·min^−1·nmol^−1 P450
